Laboratory results: ChEMBL document CHEMBL1133485, “3alpha-(4-Substituted phenyl)nortropane-2beta-carboxylic acid methyl esters show selective binding at the norepinephrine transporter” (Bioorg Med Chem Lett, 2000)
pIC50, pKi: −log10 of the molar value.

Columns and labels:
[1] = target: T1, Norepinephrine transporter (Rattus norvegicus, UniProt Q9WTR4); test: Inhibition of 0.5 nM [3H]nisoxetine binding toNorepinephrine transporter
[2] = target: T2, Sodium-dependent serotonin transporter (Rattus norvegicus, UniProt P31652)
T2 sequence (P31652 whole entry): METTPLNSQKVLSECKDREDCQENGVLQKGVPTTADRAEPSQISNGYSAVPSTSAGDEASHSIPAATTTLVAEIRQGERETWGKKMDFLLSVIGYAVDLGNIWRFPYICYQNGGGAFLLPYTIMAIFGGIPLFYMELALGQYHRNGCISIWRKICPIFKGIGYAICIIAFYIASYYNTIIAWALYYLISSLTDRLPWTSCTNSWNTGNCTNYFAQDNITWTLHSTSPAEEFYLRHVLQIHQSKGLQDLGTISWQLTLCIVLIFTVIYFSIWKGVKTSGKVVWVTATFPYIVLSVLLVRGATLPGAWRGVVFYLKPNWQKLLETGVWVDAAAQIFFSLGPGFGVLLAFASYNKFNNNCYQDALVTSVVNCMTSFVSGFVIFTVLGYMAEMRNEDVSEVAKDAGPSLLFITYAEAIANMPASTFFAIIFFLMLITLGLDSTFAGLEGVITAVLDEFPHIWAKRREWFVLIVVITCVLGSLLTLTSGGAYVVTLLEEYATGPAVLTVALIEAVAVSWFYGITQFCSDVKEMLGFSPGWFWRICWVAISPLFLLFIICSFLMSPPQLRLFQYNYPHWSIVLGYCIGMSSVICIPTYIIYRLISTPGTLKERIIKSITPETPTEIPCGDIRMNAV

[3] = target: T1, Norepinephrine transporter; test: Inhibition of 0.5 nM [3H]nisoxetine binding to Norepinephrine transporter
[4] = target: T2, Sodium-dependent serotonin transporter; test: Inhibition of 0.2 nM [3H]paroxetine binding to Serotonin transporter
[5] = target: Sodium-dependent dopamine transporter (Rattus norvegicus, UniProt P23977); test: Displacement of 0.5 nM [3H]WIN-35248 from Dopamine transporter
Chain of Sodium-dependent dopamine transporter (P23977 whole entry): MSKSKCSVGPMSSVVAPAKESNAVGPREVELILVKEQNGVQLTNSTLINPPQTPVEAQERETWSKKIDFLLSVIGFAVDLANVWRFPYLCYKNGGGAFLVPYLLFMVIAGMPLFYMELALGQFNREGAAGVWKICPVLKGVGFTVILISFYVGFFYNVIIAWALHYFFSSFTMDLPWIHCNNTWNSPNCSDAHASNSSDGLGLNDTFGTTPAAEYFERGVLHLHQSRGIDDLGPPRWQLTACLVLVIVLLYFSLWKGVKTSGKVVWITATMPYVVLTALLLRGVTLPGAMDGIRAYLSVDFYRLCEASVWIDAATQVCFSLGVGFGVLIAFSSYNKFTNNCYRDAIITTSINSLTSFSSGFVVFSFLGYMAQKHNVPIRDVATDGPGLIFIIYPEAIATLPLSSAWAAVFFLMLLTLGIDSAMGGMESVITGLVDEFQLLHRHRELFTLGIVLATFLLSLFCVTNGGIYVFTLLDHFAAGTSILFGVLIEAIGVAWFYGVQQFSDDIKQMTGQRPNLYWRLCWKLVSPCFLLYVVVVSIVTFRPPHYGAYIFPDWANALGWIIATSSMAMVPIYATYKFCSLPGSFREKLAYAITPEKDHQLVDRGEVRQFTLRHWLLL

T1 sequence (Q9WTR4 whole entry): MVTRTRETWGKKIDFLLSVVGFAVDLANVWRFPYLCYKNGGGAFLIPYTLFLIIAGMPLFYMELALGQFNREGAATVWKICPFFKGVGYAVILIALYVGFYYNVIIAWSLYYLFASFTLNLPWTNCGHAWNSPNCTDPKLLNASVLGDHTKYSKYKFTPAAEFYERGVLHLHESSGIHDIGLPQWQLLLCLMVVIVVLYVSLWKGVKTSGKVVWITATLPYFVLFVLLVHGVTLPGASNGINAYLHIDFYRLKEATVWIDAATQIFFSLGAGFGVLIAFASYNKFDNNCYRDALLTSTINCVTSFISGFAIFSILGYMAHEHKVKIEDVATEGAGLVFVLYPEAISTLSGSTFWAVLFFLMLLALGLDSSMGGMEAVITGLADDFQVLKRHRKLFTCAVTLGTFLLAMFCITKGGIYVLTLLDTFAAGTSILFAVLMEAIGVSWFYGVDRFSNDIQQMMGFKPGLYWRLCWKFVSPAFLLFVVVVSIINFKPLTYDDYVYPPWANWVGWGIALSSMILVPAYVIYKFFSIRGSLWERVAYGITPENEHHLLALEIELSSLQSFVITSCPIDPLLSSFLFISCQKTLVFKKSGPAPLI

Row | SMILES | pIC50 [1] | pKi [2] | pKi [3] | pIC50 [4] | pIC50 [5]
1 | COC(=O)C1C2CCC(CC1c1ccc(F)cc1)N2 (stereo in doubt; 4a) | 8.01 | 8.08 | 8.23 | 7.03 | 7.49
2 | COC(=O)C1C2CCC(CC1c1ccc(Cl)cc1)N2 (stereo in doubt; 4b) | 8.29 | 8.32 | 8.51 | 7.28 | 8.51
3 | COC(=O)C1C2CCC(CC1c1ccc(C)cc1)N2 (stereo in doubt; 4c) | 8.05 | 7.34 | 8.28 | 6.30 | 7.47
4 | COC(=O)[C@H]1[C@@H](c2ccc(F)cc2)C[C@H]2CC[C@H]1N2C (stereo in doubt; 5a) |  | 6.34 | 6.13 |  | 
5 | COC(=O)C1C(c2ccc(Cl)cc2)CC2CCC1N2C (stereo in doubt; 5b) |  | 7.04 |  |  | 
6 | COC(=O)C1C(c2ccc(C)cc2)CC2CCC1N2C (stereo in doubt; 5c) | 6.57 |  | 6.80 |  | 
7 | COC(=O)[C@H]1[C@@H](c2ccc(F)cc2)C[C@H]2CC[C@H]1N2C (stereo in doubt; 6a) |  | 7.16 | 6.30 |  | 
8 | COC(=O)C1C(c2ccc(Cl)cc2)CC2CCC1N2C (stereo in doubt; 6b) |  | 8.40 |  |  | 
9 | COC(=O)C1C(c2ccc(C)cc2)CC2CCC1N2C (stereo in doubt; 6c) |  |  | 7.44 |  | 
10 | COC(=O)C1C2CCC(CC1c1ccc(F)cc1)N2 (stereo in doubt; 7a) | 7.73 | 8.20 | 7.95 |  | 8.36
11 | COC(=O)C1C2CCC(CC1c1ccc(Cl)cc1)N2 (stereo in doubt; 7b) | 8.26 | 9.42 | 8.48 |  | 
12 | COC(=O)C1C2CCC(CC1c1ccc(C)cc1)N2 (stereo in doubt; 7c) | 8.14 | 7.92 | 8.36 | 6.87 | 9.08
